The source of these data is US9072293B2, “Cyclopropenes and method for applying cyclopropenes to agricultural products or crops” (Erum Biotechnologies Inc., priority 2010, dated 2015).

Values joined by “and” are separate entries in the source; they are usually repeats but may differ in a detail not shown here. Equal entries are not always repeated.

Data set [1] can be described thus: Relative chemical stability of cyclopropenes measured by 1H-NMR. In kind it is physicochemical. Particulars: for Stability (relative chemical stability, based on cyclopropenes having a chain length of 1): 1H-NMR, CDCl3, stored at −20° C. or room temperature, relative to chain length 1. An outline of the steps: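 Compounds in CDCl3 NMR tubes stored at −20° C. or room temperature and followed by 1H-NMR. Integrals of characteristic 1-alkylcyclopropene peaks (4–6.5 ppm, 1H; 0.8–0.9 ppm, 2H) compared against 1,1,3,3-tetramethylurea internal standard (2.80 ppm); stability expressed relative to chain-length-1 analogue.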

The subject of data set [2] is tomato. The data set is described as follows: Experimental Example 1: Efficacy test on tomato using emulsion (reddening grade). In kind it is in vivo. The conditions noted are these: individual tomatoes n=4. The protocol: In situ, a 1.0 mM 1-octylcyclopropene formulation was prepared using (trans)-1-octyl-1-(methanesulfonyloxy)-2-(trimethylsilyl)cyclopropane of Preparation Example 10 in the same manner as in Example 7. This solution was diluted to 1 to 100 times prior to use, as necessary. Experimental Example 1: Efficacy test on tomato using emulsion 1.0 mM formulations of five agents such as 1-(2-phenylethyl)cyclopropene, 1-(3-phenylpropyl)cyclopropene, 1-(4-phenylbutyl)cyclopropene, 1-(5-phenylpentyl)cyclopropene and 1-hexylcyclopropene were prepared in the same manner as in Example 1, and 1.0 mM and 100 μM solutions were prepared therefrom. Then, the effects of the solutions were compared with non-treated groups and control groups in which a surfactant or a stabilizing agent (sodium dodecylbenzenesulfonate or tristyrenylphenykethoxy)12ethanol) is dissolved.
Tomatoes whose top end began to turn pink were screened, harvested and divided into 12 groups (n=4) in total, i.e., non-treated groups, control groups (surfactant) and agent groups with different concentrations such as 100 μM and 1.0 mM. Tomatoes were treated with the prepared agent formulation using a household sprayer such that the surface thereof was saturated. The tomatoes were stood at room temperature (25-30° C.) for 3 days and a reddening level thereof was evaluated based on grades of 0 to 5.
(§1) At this time, the tops of tomatoes most early turned red, while the bottoms thereof most lately turned red. For this reason, in order to accurately evaluate the difference in reddening, the coloring evaluated was based on the area of red color, rather than the color of tomatoes. […] Accordingly, the grade level is proportional to the rate at which the tomatoes ripened.

Data set [3] relates to tomato. Description: Experimental Example 2: Efficacy test on tomato using oil based formulation (reddening grade). In kind it is in vivo. Further details: key: an area in which the surface of tomato was colored in pink was 10% or less; an area in which the surface of tomato was completely colored in red was 10 to 40%; 2: an area in which the surface of tomato was completely colored in red was 40 to 70%; 3: an area in which the surface of tomato was completely colored in red was 70% or more and the bottom area remained green; 4: an area in which the surface of tomato was most colored in red and only a part of (0 to 10%) the bottom area remained green; 5: the surface of tomato did not entirely color in green. The conditions noted are these: 1.0 mM oil-based formulation, individual tomatoes n=4.
From the text: as §1
As illustrated in Example 1, in situ, in accordance with the methods of Preparation Examples 15, 16, 17, 18 and 22, five agents (1.0 mmol) such as 1-(2-phenylethyl)cyclopropene, 1-(3-phenylpropyl)cyclopropene, 1-(4-phenylbutyl)cyclopropene, 1-(5-phenylpentyl)cyclopropene and 1-hexylcyclopropene were prepared, 5.0 ml of xylene and 5.0 ml of water were added to the reaction solution, vigorously stirred for 5 minutes and stood. When the mixture was separated into an organic layer (upper layer) and an aqueous layer (lower layer), only the organic layer was collected and the aqueous layer was discarded. […] of hexane was added to the organic layer and homogeneously mixed to prepare a 1.0 mM oil-based formulation.
The tomatoes were screened in the same manner as in Experimental Example 1 and divided into 7 groups (n=4) including a non-treated group, a control group (solvent-treated group) and 5 agent groups. Tomatoes were treated with the previously prepared agent using a household sprayer such that the surface thereof was saturated. The tomatoes were stood at room temperature (25-30° C.) for 3 days and a reddening level thereof was evaluated based on grades of 0 to 5.

[4] abbreviates: 100 μM, Day 0, room temperature (25-30° C.).
Where [5] appears, read: 100 μM, Day 1, room temperature (25-30° C.).
The mark [6] stands for this setting: 100 μM, Day 2, room temperature (25-30° C.).
Setting [7] is: 100 μM, Day 3, room temperature (25-30° C.).
Where [8] appears, read: 1.0 mM, Day 0, room temperature (25-30° C.).
Setting [9] is: 1.0 mM, Day 1, room temperature (25-30° C.).
Where [10] appears, read: 1.0 mM, Day 2, room temperature (25-30° C.).
The mark [11] stands for this setting: 1.0 mM, Day 3, room temperature (25-30° C.).
Setting [12] is: Day 0, room temperature (25-30° C.).
Setting [13] is: Day 1, room temperature (25-30° C.).
[14] abbreviates: Day 2, room temperature (25-30° C.).
Where [15] appears, read: Day 3, room temperature (25-30° C.).

On to `C1=C(CCc2ccccc2)C1` [(2-Phenylethyl), 1-(2-phenylethyl)cyclopropene], for which, in data set [1], the “chemical stability (in words)” value is listed as “considerably stable”. Besides, the “Stability (relative chemical stability, based on cyclopropenes having a chain length of 1)” value in data set [1] is listed as over 10. In addition, the “reddening level (grade 0 to 5)” value in the data set with tomato [2] (setting [4]) is 0 (an area in which the surface of tomato was colored in pink was 10% or less) (2×) and 1 (an area in which the surface of tomato was completely colored in red was 10 to 40%) and 2 (an area in which the surface of tomato was completely colored in red was 40 to 70%); with tomato [2] (setting [5]) it was 1 (an area in which the surface of tomato was completely colored in red was 10 to 40%) (2×) and 3 (an area in which the surface of tomato was completely colored in red was 70% or more and the bottom area remained green) (2×); in the data set with tomato [2] (setting [6]), 2 (an area in which the surface of tomato was completely colored in red was 40 to 70%) and 3 (an area in which the surface of tomato was completely colored in red was 70% or more and the bottom area remained green) and 4 (2×); in the data set with tomato [2] (setting [7]), 3 (an area in which the surface of tomato was completely colored in red was 70% or more and the bottom area remained green) and 4 and 5 (2×); in the data set on tomato [2] (setting [8]), 0 (an area in which the surface of tomato was colored in pink was 10% or less) (2×) and 1 (an area in which the surface of tomato was completely colored in red was 10 to 40%) and 2 (an area in which the surface of tomato was completely colored in red was 40 to 70%); in the data set on tomato [2] (setting [9]) it was 1 (an area in which the surface of tomato was completely colored in red was 10 to 40%) (2×) and 2 (an area in which the surface of tomato was completely colored in red was 40 to 70%) and 3 (an area in which the surface of tomato was completely colored in red was 70% or more and the bottom area remained green). In addition, the “reddening level (grade 0 to 5)” value in the data set on tomato [2] (setting [10]) is 2 (an area in which the surface of tomato was completely colored in red was 40 to 70%) (2×) and 3 (an area in which the surface of tomato was completely colored in red was 70% or more and the bottom area remained green) and 4; with tomato [2] (setting [11]), 3 (an area in which the surface of tomato was completely colored in red was 70% or more and the bottom area remained green) (2×) and 4 and 5. The “Tomato results: reddening level (grade 0 to 5)” value was 0 (an area in which the surface of tomato was colored in pink was 10% or less) (2×) and 1 (an area in which the surface of tomato was completely colored in red was 10 to 40%) and 2 (an area in which the surface of tomato was completely colored in red was 40 to 70%) in the data set on tomato [3] (setting [12]); 1 (an area in which the surface of tomato was completely colored in red was 10 to 40%) (2×) and 2 (an area in which the surface of tomato was completely colored in red was 40 to 70%) and 3 (an area in which the surface of tomato was completely colored in red was 70% or more and the bottom area remained green) in the data set with tomato [3] (setting [13]); 2 (an area in which the surface of tomato was completely colored in red was 40 to 70%) (2×) and 4 (2×) in the data set on tomato [3] (setting [14]); 4 (2×) and 5 (2×) in the data set on tomato [3] (setting [15]).
Regarding `C1=C(CCCc2ccccc2)C1` [(3-Phenylpropyl), 1-(3-phenylpropyl)cyclopropene], in data set [1], the “chemical stability (in words)” value is on record as “much more stable”. In data set [1], the “Stability (relative chemical stability, based on cyclopropenes having a chain length of 1)” value is reported as >>10. Moreover, the “reddening level (grade 0 to 5)” value is 0 (an area in which the surface of tomato was colored in pink was 10% or less) (2×) and 1 (an area in which the surface of tomato was completely colored in red was 10 to 40%) and 2 (an area in which the surface of tomato was completely colored in red was 40 to 70%) with tomato [2] (setting [4]); 1 (an area in which the surface of tomato was completely colored in red was 10 to 40%) (3×) and 2 (an area in which the surface of tomato was completely colored in red was 40 to 70%) in the data set on tomato [2] (setting [5]); 1 (an area in which the surface of tomato was completely colored in red was 10 to 40%) (2×) and 2 (an area in which the surface of tomato was completely colored in red was 40 to 70%) and 3 (an area in which the surface of tomato was completely colored in red was 70% or more and the bottom area remained green) with tomato [2] (setting [6]); 2 (an area in which the surface of tomato was completely colored in red was 40 to 70%) (2×) and 3 (an area in which the surface of tomato was completely colored in red was 70% or more and the bottom area remained green) and 4 in the data set with tomato [2] (setting [7]); 0 (an area in which the surface of tomato was colored in pink was 10% or less) (2×) and 1 (an area in which the surface of tomato was completely colored in red was 10 to 40%) and 2 (an area in which the surface of tomato was completely colored in red was 40 to 70%) in the data set on tomato [2] (setting [8]); 0 (an area in which the surface of tomato was colored in pink was 10% or less) (2×) and 1 (an area in which the surface of tomato was completely colored in red was 10 to 40%) and 2 (an area in which the surface of tomato was completely colored in red was 40 to 70%) in the data set with tomato [2] (setting [9]). Moreover, the “reddening level (grade 0 to 5)” value is 1 (an area in which the surface of tomato was completely colored in red was 10 to 40%) (2×) and 0 (an area in which the surface of tomato was colored in pink was 10% or less) and 3 (an area in which the surface of tomato was completely colored in red was 70% or more and the bottom area remained green) in the data set on tomato [2] (setting [10]); 1 (an area in which the surface of tomato was completely colored in red was 10 to 40%) (2×) and 2 (an area in which the surface of tomato was completely colored in red was 40 to 70%) and 3 (an area in which the surface of tomato was completely colored in red was 70% or more and the bottom area remained green) with tomato [2] (setting [11]). The “Tomato results: reddening level (grade 0 to 5)” value with tomato [3] (setting [12]) was 0 (an area in which the surface of tomato was colored in pink was 10% or less) (2×) and 1 (an area in which the surface of tomato was completely colored in red was 10 to 40%) and 2 (an area in which the surface of tomato was completely colored in red was 40 to 70%); in the data set with tomato [3] (setting [13]), 0 (an area in which the surface of tomato was colored in pink was 10% or less) (2×) and 1 (an area in which the surface of tomato was completely colored in red was 10 to 40%) and 2 (an area in which the surface of tomato was completely colored in red was 40 to 70%); with tomato [3] (setting [14]) it was 0 (an area in which the surface of tomato was colored in pink was 10% or less) (2×) and 1 (an area in which the surface of tomato was completely colored in red was 10 to 40%) and 3 (an area in which the surface of tomato was completely colored in red was 70% or more and the bottom area remained green); in the data set on tomato [3] (setting [15]) it was 1 (an area in which the surface of tomato was completely colored in red was 10 to 40%) (2×) and 2 (an area in which the surface of tomato was completely colored in red was 40 to 70%) and 4.
